In PMC7366380, “Discovery of a Potent and Selective Covalent Inhibitor and Activity-Based Probe for the Deubiquitylating Enzyme UCHL1, with Antifibrotic Activity” (Journal of the American Chemical Society, 2020):
Several values for one entry are separate records, joined by “and”; a condition that tells them apart may be missing. Equal values may be shown once. Values belong to the molecule of their own block, whether it stands above or below them.

Key:
Assay in all cases: In-cell proteome-wide competitive ABPP, HEK293: other DUBs and proteins
[1] = target: DUBs and other proteins in HEK293 cells (Homo sapiens, UniProt P54578); details: replicates A-C; for Log2 reporter intensity values: USP14: competition with ABP 2, DMSO substract (FC); for Log2 reporter intensity values: USP14, DMSO subtracted
DUBs and other proteins in HEK293 cells (Homo sapiens, UniProt P54578), sequence (P54578 whole entry): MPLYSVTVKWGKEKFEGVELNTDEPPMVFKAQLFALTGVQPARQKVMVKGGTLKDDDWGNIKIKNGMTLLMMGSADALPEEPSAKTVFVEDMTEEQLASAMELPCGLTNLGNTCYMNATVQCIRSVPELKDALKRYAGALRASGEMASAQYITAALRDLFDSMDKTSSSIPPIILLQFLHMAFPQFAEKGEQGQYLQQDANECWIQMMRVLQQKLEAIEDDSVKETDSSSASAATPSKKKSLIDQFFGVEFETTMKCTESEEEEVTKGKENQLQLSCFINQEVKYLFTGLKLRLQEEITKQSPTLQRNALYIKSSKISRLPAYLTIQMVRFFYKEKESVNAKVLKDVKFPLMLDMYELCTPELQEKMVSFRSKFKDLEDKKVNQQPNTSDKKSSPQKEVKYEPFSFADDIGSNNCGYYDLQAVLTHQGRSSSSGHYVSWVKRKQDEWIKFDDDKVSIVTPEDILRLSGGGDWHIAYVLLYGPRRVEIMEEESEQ

[2] = target: DUBs and other proteins in HEK293 cells (Homo sapiens, UniProt Q96BN8); details: replicates A-C; for Log2 reporter intensity values: OTULIN: competition with ABP 2, DMSO substract (FC); for Log2 reporter intensity values: OTULIN, DMSO subtracted
DUBs and other proteins in HEK293 cells (Homo sapiens, UniProt Q96BN8), sequence (Q96BN8 whole entry): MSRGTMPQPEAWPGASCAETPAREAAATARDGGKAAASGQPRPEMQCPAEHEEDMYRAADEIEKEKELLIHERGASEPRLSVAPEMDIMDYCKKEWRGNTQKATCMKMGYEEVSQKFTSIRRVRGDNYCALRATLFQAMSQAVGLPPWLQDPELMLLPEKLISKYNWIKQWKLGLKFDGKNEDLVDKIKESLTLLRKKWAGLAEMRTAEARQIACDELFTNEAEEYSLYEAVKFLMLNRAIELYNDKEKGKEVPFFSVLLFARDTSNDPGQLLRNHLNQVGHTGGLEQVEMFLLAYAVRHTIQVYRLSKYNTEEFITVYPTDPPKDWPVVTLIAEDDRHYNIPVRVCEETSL

[3] = target: T1, DUBs and other proteins in HEK293 cells (Homo sapiens, UniProt Q96RU2); details: replicates A-C; for Log2 reporter intensity values: USP28: competition with ABP 2, DMSO substract (FC); for Log2 reporter intensity values: USP28, DMSO subtracted
T1 sequence (Q96RU2 1-1077): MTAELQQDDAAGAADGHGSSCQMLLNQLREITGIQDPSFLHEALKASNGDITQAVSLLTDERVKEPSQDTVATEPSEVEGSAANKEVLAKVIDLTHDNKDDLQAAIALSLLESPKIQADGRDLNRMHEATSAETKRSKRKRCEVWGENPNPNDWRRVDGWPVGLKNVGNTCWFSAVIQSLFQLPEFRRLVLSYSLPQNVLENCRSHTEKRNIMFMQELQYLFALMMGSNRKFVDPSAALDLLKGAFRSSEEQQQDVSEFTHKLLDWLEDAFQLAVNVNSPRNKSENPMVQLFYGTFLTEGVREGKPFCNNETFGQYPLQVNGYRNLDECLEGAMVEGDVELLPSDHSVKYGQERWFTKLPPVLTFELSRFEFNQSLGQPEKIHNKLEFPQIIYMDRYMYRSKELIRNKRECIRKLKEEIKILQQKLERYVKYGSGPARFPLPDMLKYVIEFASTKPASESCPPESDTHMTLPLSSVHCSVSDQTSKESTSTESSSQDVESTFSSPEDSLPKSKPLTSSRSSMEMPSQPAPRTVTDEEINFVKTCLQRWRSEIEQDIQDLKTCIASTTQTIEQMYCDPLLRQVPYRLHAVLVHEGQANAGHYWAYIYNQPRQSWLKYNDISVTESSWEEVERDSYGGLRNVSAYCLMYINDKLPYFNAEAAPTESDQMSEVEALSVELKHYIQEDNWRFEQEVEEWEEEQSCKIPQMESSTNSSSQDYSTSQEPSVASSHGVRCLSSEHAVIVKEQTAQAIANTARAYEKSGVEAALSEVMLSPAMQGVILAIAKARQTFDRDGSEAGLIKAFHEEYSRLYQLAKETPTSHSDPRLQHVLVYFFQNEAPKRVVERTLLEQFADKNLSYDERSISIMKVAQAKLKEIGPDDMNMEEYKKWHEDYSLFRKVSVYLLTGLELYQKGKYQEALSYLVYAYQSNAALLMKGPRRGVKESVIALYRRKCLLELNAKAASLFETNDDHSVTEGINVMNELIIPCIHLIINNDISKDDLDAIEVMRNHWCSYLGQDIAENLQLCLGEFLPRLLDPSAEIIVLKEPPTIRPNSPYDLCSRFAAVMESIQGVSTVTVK

[4] = target: T2, DUBs and other proteins in HEK293 cells (Homo sapiens, UniProt Q9Y4E8); details: replicates A-C; for Log2 reporter intensity values: USP15: competition with ABP 2, DMSO substract (FC); for Log2 reporter intensity values: USP15, DMSO subtracted
T2 sequence (Q9Y4E8 1-981): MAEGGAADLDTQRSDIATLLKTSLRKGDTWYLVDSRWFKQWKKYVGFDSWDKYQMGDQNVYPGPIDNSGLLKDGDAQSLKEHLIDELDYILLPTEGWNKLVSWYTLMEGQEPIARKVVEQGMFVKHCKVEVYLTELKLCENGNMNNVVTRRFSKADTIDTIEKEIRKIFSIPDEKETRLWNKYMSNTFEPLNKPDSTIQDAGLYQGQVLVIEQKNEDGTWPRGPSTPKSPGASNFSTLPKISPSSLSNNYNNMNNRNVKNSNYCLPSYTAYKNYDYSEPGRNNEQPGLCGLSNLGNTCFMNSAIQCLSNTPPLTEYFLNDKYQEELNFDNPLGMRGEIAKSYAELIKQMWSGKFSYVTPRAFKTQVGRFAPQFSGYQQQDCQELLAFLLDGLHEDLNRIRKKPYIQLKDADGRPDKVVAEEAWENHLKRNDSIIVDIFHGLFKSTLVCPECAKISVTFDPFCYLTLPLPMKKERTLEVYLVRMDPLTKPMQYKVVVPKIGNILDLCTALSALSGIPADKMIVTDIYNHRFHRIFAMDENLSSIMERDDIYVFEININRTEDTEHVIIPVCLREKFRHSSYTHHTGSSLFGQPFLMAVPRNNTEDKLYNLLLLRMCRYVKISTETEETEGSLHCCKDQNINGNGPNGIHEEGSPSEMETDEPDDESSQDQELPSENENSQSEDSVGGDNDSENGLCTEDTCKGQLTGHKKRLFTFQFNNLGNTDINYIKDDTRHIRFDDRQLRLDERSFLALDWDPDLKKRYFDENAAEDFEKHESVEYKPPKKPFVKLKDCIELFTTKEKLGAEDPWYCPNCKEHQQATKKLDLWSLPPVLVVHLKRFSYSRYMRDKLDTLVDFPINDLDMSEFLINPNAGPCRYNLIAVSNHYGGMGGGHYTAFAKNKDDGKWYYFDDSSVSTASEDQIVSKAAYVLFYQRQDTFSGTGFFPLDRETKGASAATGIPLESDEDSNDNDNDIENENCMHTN

- Log2 reporter intensity values: USP14 ([1]; 1 at 1 μM): 1.068 and 1.073 and 1.08
- Log2 reporter intensity values: USP14 ([1]; 1 at 4 μM): 1.026 and 1.014 and 1.052
- Log2 reporter intensity values ([1]; 1_1 μM): 0.06753 and 0.073 and 0.0796
- Log2 reporter intensity values ([1]; 1_4 μM): 0.02617 and 0.01386 and 0.05174
- Log2 reporter intensity values ([1]; 1 at 1 μM): 0.09459 and 0.102 and 0.1108
- Log2 reporter intensity values ([1]; 1 at 4 μM): 0.03759 and 0.02017 and 0.07309
- Log2 reporter intensity values: OTULIN ([2]; 1 at 1 μM): 1.158 and 1.113 and 1.037
- Log2 reporter intensity values: OTULIN ([2]; 1 at 4 μM): 1.068 and 1.004 and 1.156
- Log2 reporter intensity values ([2]; 1_1 μM): 0.1579 and 0.1121 and 0.03603
- Log2 reporter intensity values ([2]; 1_4 μM): 0.06743 and 0.003361 and 0.1557
- Log2 reporter intensity values ([2]; 1 at 1 μM): 0.2122 and 0.154 and 0.0518
- Log2 reporter intensity values ([2]; 1 at 4 μM): 0.09485 and 0.0056 and 0.2094
- Log2 reporter intensity values: USP28 ([3]; 1 at 1 μM): 0.9959 and 0.8739 and 1.601
- Log2 reporter intensity values: USP28 ([3]; 1 at 4 μM): 1.351 and 1.583 and 1.105
- Log2 reporter intensity values ([3]; 1_1 μM): -0.04385 and -0.1658 and 0.561
- Log2 reporter intensity values ([3]; 1_4 μM): 0.3117 and 0.5434 and 0.06533
- Log2 reporter intensity values ([3]; 1 at 1 μM): -0.005982 and -0.1944 and 0.6787
- Log2 reporter intensity values ([3]; 1 at 4 μM): 0.4345 and 0.6627 and 0.1441
- Log2 reporter intensity values: USP15 ([4]; 1 at 1 μM): 0.9886 and 1.029 and 1.017
- Log2 reporter intensity values: USP15 ([4]; 1 at 4 μM): 1.093 and 1.191 and 1.05
- Log2 reporter intensity values ([4]; 1_1 μM): -0.01164 and 0.02918 and 0.01631
- Log2 reporter intensity values ([4]; 1_4 μM): 0.09302 and 0.1906 and 0.04957
- Log2 reporter intensity values ([4]; 1 at 1 μM): -0.0165 and 0.04186 and 0.02371
- Log2 reporter intensity values ([4]; 1 at 4 μM): 0.1287 and 0.252 and 0.07016
Compound: N#CN1CCC[C@H]1C(=O)N1CCc2c(-c3c[nH]c4ncccc34)cccc21 [Compound 1]

- Log2 reporter intensity values: USP14 ([1]; 3 at 1 μM): 1.142 and 1.077 and 1.079
- Log2 reporter intensity values: USP14 ([1]; 3 at 4 μM): 1.079 and 1.198 and 1.16
- Log2 reporter intensity values ([1]; 3_1 μM): 0.1415 and 0.07672 and 0.07886
- Log2 reporter intensity values ([1]; 3_4 μM): 0.07915 and 0.1978 and 0.16
- Log2 reporter intensity values ([1]; 3 at 1 μM): 0.1912 and 0.1069 and 0.1098
- Log2 reporter intensity values ([1]; 3 at 4 μM): 0.1102 and 0.2606 and 0.2145
- Log2 reporter intensity values: OTULIN ([2]; 3 at 1 μM): 1.194 and 0.9889 and 0.9216
- Log2 reporter intensity values: OTULIN ([2]; 3 at 4 μM): 0.8963 and 0.9821 and 1.002
- Log2 reporter intensity values ([2]; 3_1 μM): 0.1933 and -0.01163 and -0.07888
- Log2 reporter intensity values ([2]; 3_4 μM): -0.1043 and -0.01848 and 0.001875
- Log2 reporter intensity values ([2]; 3 at 1 μM): 0.2556 and -0.01611 and -0.1177
- Log2 reporter intensity values ([2]; 3 at 4 μM): -0.158 and -0.02613 and 0.003463
- Log2 reporter intensity values: USP28 ([3]; 3 at 1 μM): 1.351 and 1.11 and 0.8433
- Log2 reporter intensity values: USP28 ([3]; 3 at 4 μM): 0.6356 and 0.4265 and 0.9775
- Log2 reporter intensity values ([3]; 3_1 μM): 0.3111 and 0.07023 and -0.1965
- Log2 reporter intensity values ([3]; 3_4 μM): -0.4041 and -0.6132 and -0.06225
- Log2 reporter intensity values ([3]; 3 at 1 μM): 0.4339 and 0.1505 and -0.246
- Log2 reporter intensity values ([3]; 3 at 4 μM): -0.6539 and -1.229 and -0.03288
- Log2 reporter intensity values: USP15 ([4]; 3 at 1 μM): 1.093 and 1.008 and 1.068
- Log2 reporter intensity values: USP15 ([4]; 3 at 4 μM): 1.017 and 0.9783 and 1.019
- Log2 reporter intensity values ([4]; 3_1 μM): 0.09224 and 0.007674 and 0.06804
- Log2 reporter intensity values ([4]; 3_4 μM): 0.01634 and -0.02192 and 0.0187
- Log2 reporter intensity values ([4]; 3 at 1 μM): 0.1276 and 0.0114 and 0.09532
- Log2 reporter intensity values ([4]; 3 at 4 μM): 0.02376 and -0.03158 and 0.02709
Compound: N#CN1CCC[C@@H]1C(=O)N1CCc2c(-c3c[nH]c4ncccc34)cccc21 [Compound 3]
